Reference: patent publication US12570661B2, “Isoform-specific aldehyde dehydrogenase inhibitors” (The Board of Trustees of the Leland Stanford Junior …, priority 2020, dated 2026)

How the values were obtained:
[1] = molecular target: T1, ALDH1B1 (Homo sapiens, UniProt P30837); assay: ALDEFLUOR assay of cellular ALDH1B1 activity in ALDH1B1-transfected ALDH1A3−/− A375 cells; format: cell-based; conditions: for IC50: ALDEFLUOR, ALDH1B1-overexpressing ALDH1A3−/− A375 cells, read-out: ALDH1B1(in cellulo) IC50
T1 sequence (P30837 18-517): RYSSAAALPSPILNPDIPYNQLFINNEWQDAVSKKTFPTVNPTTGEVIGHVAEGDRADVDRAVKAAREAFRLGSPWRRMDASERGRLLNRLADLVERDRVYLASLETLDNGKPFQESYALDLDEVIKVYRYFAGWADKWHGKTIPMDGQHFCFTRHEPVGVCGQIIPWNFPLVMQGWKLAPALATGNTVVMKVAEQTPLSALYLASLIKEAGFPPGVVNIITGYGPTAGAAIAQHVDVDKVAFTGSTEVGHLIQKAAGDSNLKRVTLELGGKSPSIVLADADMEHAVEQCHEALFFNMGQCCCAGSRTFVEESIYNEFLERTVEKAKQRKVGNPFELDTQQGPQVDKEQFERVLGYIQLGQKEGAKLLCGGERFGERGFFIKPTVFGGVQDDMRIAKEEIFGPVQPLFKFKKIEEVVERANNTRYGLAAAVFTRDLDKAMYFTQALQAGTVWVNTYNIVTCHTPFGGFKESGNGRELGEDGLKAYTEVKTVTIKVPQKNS
Experimental: ALDH1A3^−/− A375 cells were seeded into a 6-well plate at a density of 5×10^5 cells/well and cultured for 24 h. The cells were then transfected with either pCMV6-entry, pCMV6-GFP (Addgene, plasmid 11153), or pCMV-ALDH1B1. After 24 h, the media was replaced and transfection efficiencies were estimated by the EGFP-positive cells in the pCMV-GFP-transfected well. The cells were cultured for another 24 h and their ALDH activities were quantified using the ALDEFLUOR assay. Briefly, the cells were isolated from the plate with trypsin and resuspended in ALDEFLUOR assay buffer (STEMCELL Technologies) at a concentration of 4×10^5 cells/mL. Each ALDEFLUOR assay used 0.5 mL of this cell suspension, and the cells were treated with individual compounds for 15 min at 37° C. and 5% CO2. The cell suspensions were then treated with 2.5 μL ALDEFLUOR reagent and incubated for an additional 30 min at 37° C. and 5% CO2. The cells were then collected by centrifugation (450×g) for 5 min at room temperature, resuspended in 200 μL assay buffer, and analyzed with an LSR II flow cytometer (BD Biosciences) at the Stanford FACS facility.

[2] = HEK-293T cytotoxicity (cell viability) assay; format: cell-based; conditions: human, HEK-293T cells; adherent HEK-293T, 4-5 days, CellTiter-Glo; read-out: HEK293T GI50
Experimental: HEK-293T cells were seeded into a 96-well plate at a density of 5×10^3 cells/well and treated with varying concentrations of selected compounds or an equivalent amount of DMSO vehicle. The cells were cultured for 4-5 days without a media change, and after the DMSO-treated cells approached 100% confluence, the cell viabilities were measured using a CellTiter-Glo 3D Cell Viability Assay kit (Promega) and a Veritas microplate luminometer (Turner BioSystems) as described above.

[3] = test system: NIH-3T3 cells; assay: Seahorse oxygen-consumption-rate assay (NIH3T3); format: cell-based, murine; conditions: Mus musculus
[4] = test system: SW480 cells (adherent); assay: Cell viability assay, adherent SW480 cultures; format: cell-based, human; conditions: adherent culture, 7 days
Experimental: SW480 or HCT116 cells were seeded into regular or Matrigel-coated 96-well plates at a density of 1000 cells/well. The cells were cultured in the corresponding adherent or spheroid culture medium (200 μL/well) containing the designated compounds or an equivalent amount of DMSO vehicle. Each culture was maintained for 7 days, and then cell viabilities were measured using a CellTiter-Glo 3D Cell Viability Assay kit (Promega). Briefly, 100 μL of the culture medium was removed from each well and replaced with 100 μL 3D Cell Assay reagent. The cells in each well were next homogenized by vigorous pipetting, and the plate was incubated for 10 min at room temperature to stabilize the chemiluminescent signal. A 150-μL aliquot from each well was then transferred into a white opaque 96-well assay plate (flat-bottom and non-treated; Corning Costar) and luminescence intensities were measured with a Veritas microplate luminometer (Turner BioSystems).

| Structure (SMILES) | effect on ALDH1B1-dependent ALDEFLUOR signal (cellular ALDH1B1 activity) ([1]; flow cytometry) | IC50 [1] | GI50 ([4]; Homo sapiens, SW480, 168 h) | GI50 [2] | IC50 [3] | GI50 [4] |
| --- | --- | --- | --- | --- | --- | --- |
| COc1ccccc1C1=CN(c2ccc(-c3ccccc3)cc2)C2=NCCCCN12 [HPI-273] |  | 35 nM | 5800 nM | 2800 nM | 190 nM |  |
| COc1ccccc1C1=CN(c2ccc(-c3ccccc3)cc2)C2=NCCCN12 [STL5-T-0002] |  | 110 nM |  | 8900 nM | 850 nM | 8200 nM |

The next lines start with results.

| effect on ALDH1B1-dependent ALDEFLUOR signal (cellular ALDH1B1 activity) ([1]; flow cytometry) | IC50 [1] | GI50 ([4]; Homo sapiens, SW480, 168 h) | Structure (SMILES) | GI50 [2] | IC50 [3] | GI50 [4] |
| --- | --- | --- | --- | --- | --- | --- |
| had no effect |  |  | COc1ccccc1-n1cc(-c2ccccn2)[n+]2c1CCCCC2 [Compound 63] |  |  |  |
|  | 38 nM | 570 nM | COc1ccccc1-n1cc(-c2ccc(-c3ccccc3)cc2)[n+]2c1CCCCC2 [Imidazolium 2] | 230 nM | 180 nM |  |
|  | 22 nM | 850 nM | COc1ccccc1-c1ccc(-c2cn(-c3ccccc3OC)c3[n+]2CCCCC3)cc1.[Br-] [Imidazolium 8] | 160 nM | 130 nM |  |
